This is an account of results in ChEMBL document CHEMBL4765228, “Indole-like Trk receptor antagonists” (Eur J Med Chem, 2016).

The species named for experiment [1] is Homo sapiens. The experiment is described as follows: Inhibition of human S6K assessed as residual activity at 0.1 uM relative to control.
Experiment [2] has as its target Tyrosine-protein kinase BTK (Homo sapiens) (UniProt Q06187). In words: Inhibition of human BTK assessed as residual activity at 0.1 uM relative to control.
The target in experiment [3] is Tyrosine-protein kinase Lck (Homo sapiens) (UniProt P06239). The experiment is described as follows: Inhibition of human LCK assessed as residual activity at 0.1 uM relative to control.
Chain of Tyrosine-protein kinase Lck (Homo sapiens) (P06239 2-509 limits assumed): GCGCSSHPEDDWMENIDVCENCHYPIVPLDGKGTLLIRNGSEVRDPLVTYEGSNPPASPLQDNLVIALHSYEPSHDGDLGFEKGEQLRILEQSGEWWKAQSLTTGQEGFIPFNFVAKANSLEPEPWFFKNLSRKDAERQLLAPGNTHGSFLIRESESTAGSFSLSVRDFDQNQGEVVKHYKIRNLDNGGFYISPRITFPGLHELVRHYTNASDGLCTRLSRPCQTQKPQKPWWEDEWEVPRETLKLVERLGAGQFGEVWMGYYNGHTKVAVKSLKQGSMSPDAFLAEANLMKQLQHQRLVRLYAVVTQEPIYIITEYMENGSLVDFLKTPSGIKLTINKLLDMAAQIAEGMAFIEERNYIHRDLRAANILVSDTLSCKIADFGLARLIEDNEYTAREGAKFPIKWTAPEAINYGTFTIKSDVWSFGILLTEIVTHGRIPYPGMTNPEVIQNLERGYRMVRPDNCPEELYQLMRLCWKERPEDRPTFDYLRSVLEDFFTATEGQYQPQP
Experiment [4] deals with T1, High affinity nerve growth factor receptor (Homo sapiens, UniProt P04629). The experiment is described as follows: Inhibition of human TRKA assessed as residual activity at 1 uM relative to control.
T1 sequence (P04629 33-796 limits assumed): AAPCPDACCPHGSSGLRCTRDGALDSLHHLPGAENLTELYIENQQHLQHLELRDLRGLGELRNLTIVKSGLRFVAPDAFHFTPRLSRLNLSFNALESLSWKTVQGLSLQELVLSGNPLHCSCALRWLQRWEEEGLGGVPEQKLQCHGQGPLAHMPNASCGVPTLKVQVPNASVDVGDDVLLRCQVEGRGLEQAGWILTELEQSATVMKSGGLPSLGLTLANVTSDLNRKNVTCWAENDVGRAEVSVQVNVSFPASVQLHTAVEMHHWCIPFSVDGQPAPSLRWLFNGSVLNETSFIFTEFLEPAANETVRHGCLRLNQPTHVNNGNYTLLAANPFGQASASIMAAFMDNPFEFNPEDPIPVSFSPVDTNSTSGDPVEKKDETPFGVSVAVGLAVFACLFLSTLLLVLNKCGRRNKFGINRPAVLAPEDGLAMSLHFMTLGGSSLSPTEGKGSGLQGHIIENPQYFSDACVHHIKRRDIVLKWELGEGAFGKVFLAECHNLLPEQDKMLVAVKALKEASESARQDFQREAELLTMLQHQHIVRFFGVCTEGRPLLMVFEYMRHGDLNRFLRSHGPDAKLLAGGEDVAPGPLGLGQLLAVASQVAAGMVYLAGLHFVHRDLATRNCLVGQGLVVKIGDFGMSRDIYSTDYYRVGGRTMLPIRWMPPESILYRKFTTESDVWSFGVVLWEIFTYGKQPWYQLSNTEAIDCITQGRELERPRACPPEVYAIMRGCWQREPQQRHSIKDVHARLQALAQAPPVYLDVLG
For experiment [5], the target named is Serine/threonine-protein kinase PAK 4 (Homo sapiens) (UniProt O96013). In words: Inhibition of human PAK4 assessed as residual activity at 1 uM relative to control.
Chain of Serine/threonine-protein kinase PAK 4 (Homo sapiens) (O96013 whole entry, looked up): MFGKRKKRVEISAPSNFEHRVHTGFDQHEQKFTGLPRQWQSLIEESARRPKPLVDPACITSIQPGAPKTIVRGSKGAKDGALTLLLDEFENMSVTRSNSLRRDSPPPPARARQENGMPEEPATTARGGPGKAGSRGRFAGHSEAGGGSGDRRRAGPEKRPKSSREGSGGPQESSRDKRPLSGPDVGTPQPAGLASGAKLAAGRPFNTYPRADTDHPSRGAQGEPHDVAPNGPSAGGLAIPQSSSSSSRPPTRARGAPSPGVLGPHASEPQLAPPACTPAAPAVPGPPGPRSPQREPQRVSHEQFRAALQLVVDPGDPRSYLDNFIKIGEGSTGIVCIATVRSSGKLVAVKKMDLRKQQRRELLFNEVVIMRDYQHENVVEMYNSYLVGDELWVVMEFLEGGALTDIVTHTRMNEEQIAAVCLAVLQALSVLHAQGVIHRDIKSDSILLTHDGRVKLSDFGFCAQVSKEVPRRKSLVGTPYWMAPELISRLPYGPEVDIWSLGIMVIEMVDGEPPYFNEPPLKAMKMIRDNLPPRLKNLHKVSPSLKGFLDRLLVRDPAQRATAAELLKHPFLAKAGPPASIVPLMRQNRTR
Experiment [6] deals with T2, Dual specificity protein kinase TTK (Homo sapiens) (UniProt P33981).
T2 sequence (whole entry): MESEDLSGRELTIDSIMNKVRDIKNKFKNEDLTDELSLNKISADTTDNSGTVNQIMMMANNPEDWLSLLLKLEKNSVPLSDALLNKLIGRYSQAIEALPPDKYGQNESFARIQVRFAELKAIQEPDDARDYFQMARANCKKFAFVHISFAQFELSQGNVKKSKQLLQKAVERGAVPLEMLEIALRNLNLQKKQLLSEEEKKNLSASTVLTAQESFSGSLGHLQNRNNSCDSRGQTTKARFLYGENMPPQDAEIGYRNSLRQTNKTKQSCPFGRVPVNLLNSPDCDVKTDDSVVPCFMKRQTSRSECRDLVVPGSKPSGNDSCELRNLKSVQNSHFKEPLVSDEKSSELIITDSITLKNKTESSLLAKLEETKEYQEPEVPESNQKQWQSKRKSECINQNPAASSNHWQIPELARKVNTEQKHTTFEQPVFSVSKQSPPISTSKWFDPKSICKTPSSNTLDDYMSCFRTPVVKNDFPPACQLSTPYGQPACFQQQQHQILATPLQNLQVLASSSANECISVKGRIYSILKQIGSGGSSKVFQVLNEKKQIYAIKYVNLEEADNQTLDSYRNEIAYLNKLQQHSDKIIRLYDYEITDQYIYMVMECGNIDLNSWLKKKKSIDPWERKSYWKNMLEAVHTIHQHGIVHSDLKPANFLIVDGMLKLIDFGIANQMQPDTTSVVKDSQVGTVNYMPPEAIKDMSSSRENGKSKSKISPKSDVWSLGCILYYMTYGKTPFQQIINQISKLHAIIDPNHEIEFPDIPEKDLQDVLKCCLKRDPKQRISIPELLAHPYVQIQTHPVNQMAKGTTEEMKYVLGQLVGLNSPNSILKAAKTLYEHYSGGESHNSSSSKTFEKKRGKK
The experiment is described as follows: Inhibition of human TTK assessed as residual activity at 0.1 uM relative to control.

The target of experiment [7] is T3, Serine/threonine-protein kinase Sgk1 (Homo sapiens) (UniProt O00141).
T3 sequence (whole entry): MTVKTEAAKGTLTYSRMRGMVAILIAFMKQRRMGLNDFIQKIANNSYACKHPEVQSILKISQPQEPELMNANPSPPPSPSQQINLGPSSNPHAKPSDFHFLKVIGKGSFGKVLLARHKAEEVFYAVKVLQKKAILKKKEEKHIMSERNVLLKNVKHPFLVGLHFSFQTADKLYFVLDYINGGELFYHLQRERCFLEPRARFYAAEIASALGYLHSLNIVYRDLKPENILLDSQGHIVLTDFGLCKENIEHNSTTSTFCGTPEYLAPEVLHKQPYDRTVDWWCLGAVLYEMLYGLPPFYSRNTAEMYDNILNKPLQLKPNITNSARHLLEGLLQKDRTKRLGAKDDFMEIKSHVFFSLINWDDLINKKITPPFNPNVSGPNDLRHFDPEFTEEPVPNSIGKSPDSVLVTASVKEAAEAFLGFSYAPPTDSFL
In words: Inhibition of human SGK1 assessed as residual activity at 0.1 uM relative to control.

The target of experiment [8] is Myosin light chain kinase, smooth muscle (Homo sapiens) (UniProt Q15746). In words: Inhibition of human MYLK assessed as residual activity at 1 uM relative to control.
Experiment [9] concerns the target T1, High affinity nerve growth factor receptor. In words: Inhibition of human TRKA assessed as residual activity at 0.1 uM relative to control.
Experiment [10] addresses T4, Serine/threonine-protein kinase D1 (Homo sapiens) (UniProt Q15139).
T4 sequence (whole entry): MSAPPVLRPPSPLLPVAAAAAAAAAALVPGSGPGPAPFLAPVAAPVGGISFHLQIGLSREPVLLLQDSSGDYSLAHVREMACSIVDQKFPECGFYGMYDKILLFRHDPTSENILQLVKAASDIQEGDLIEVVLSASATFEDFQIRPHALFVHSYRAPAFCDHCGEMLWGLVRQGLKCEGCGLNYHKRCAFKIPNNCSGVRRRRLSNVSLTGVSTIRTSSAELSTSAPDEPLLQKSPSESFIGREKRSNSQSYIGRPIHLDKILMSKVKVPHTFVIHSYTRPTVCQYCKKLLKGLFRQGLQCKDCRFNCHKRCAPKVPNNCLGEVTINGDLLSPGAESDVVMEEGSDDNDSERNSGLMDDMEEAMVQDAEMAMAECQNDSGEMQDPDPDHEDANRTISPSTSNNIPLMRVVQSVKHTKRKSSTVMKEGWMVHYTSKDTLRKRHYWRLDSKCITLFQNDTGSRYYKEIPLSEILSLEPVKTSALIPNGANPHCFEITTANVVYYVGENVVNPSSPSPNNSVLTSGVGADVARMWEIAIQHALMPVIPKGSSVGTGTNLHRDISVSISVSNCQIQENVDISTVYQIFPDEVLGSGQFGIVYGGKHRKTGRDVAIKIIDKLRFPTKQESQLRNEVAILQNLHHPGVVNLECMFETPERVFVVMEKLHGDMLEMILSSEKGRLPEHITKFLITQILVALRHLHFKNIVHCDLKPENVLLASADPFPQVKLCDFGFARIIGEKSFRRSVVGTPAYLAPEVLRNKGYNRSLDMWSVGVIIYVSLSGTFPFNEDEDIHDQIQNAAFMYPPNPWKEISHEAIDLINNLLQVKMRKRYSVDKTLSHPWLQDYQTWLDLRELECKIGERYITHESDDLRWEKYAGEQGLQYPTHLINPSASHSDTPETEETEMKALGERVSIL
In words: Inhibition of human PKCmu assessed as residual activity at 1 uM relative to control.

For experiment [11], the target named is SRSF protein kinase 1 (Homo sapiens) (UniProt Q96SB4). In words: Inhibition of human SRPK1 assessed as residual activity at 0.1 uM relative to control.
Chain of SRSF protein kinase 1 (Homo sapiens) (Q96SB4 whole entry): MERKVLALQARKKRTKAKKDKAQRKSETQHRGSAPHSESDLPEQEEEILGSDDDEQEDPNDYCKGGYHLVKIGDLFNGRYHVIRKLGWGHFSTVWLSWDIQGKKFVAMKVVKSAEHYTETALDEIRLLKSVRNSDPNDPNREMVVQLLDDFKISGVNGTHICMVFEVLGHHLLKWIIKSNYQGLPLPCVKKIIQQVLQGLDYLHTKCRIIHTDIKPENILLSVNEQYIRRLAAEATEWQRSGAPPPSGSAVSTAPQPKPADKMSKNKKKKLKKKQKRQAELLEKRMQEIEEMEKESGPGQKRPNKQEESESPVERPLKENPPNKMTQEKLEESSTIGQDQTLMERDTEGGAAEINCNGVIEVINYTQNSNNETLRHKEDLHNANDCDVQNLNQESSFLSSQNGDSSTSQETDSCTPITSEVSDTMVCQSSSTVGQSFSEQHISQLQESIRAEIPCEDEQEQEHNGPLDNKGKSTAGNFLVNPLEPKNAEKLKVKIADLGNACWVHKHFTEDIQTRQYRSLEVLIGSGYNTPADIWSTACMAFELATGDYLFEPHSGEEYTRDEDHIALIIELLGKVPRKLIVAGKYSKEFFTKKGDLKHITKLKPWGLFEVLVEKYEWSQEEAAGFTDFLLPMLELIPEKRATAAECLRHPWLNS
Experiment [12] concerns the target Serine/threonine-protein kinase PLK1 (Homo sapiens) (UniProt P53350). The experiment is described as follows: Inhibition of human PLK1 assessed as residual activity at 1 uM relative to control.
Experiment [13] deals with Casein kinase II subunit alpha (Homo sapiens) (UniProt P68400). In words: Inhibition of human CK2alpha1 assessed as residual activity at 1 uM relative to control.
Chain of Casein kinase II subunit alpha (Homo sapiens) (P68400 whole entry, looked up): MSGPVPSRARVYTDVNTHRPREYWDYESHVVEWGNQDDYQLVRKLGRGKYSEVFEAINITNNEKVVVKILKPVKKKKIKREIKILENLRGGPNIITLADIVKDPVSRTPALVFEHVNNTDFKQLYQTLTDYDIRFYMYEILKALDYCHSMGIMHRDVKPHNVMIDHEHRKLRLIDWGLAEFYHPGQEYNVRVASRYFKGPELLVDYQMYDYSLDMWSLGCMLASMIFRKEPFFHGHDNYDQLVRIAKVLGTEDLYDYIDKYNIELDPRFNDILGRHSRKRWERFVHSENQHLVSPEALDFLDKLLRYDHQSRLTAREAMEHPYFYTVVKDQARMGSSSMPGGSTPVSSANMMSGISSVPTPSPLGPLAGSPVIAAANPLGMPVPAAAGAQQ
Experiment [14] concerns the target Mitogen-activated protein kinase 8 (Homo sapiens) (UniProt P45983). In words: Inhibition of human JNK1 assessed as residual activity at 0.1 uM relative to control.

Chain of Serine/threonine-protein kinase PLK1 (Homo sapiens) (P53350 whole entry): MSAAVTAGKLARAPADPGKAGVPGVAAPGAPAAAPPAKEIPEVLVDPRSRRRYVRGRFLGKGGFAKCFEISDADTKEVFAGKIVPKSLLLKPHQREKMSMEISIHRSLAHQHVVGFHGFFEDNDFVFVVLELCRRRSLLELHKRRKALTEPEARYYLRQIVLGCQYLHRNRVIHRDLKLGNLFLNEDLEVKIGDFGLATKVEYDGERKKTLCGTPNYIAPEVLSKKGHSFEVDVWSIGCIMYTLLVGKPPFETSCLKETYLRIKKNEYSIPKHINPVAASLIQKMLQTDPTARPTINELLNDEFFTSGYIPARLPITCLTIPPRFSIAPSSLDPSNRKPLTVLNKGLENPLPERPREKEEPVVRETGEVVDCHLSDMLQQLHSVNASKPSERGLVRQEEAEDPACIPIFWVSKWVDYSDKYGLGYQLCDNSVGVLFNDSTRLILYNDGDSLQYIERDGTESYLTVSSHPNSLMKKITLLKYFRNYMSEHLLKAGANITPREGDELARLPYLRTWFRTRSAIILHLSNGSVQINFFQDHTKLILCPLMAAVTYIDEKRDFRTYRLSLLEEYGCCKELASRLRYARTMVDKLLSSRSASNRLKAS
Chain of Tyrosine-protein kinase BTK (Homo sapiens) (Q06187 whole entry): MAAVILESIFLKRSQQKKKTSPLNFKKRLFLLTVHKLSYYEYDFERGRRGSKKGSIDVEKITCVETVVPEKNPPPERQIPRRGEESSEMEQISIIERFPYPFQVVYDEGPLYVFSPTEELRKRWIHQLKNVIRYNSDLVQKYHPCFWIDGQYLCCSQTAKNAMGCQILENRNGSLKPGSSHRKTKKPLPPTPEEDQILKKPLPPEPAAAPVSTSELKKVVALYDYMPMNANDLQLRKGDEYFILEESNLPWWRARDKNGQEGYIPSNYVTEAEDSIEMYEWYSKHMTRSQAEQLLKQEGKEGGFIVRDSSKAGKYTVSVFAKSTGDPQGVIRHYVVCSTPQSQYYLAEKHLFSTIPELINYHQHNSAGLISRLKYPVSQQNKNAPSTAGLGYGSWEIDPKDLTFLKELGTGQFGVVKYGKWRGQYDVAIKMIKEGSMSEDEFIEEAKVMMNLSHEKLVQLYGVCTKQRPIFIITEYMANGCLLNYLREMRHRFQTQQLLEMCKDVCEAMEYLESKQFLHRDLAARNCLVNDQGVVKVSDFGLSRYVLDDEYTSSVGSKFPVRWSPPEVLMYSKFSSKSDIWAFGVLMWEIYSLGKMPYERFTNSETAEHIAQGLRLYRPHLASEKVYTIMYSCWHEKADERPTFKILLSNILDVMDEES
Chain of Mitogen-activated protein kinase 8 (Homo sapiens) (P45983 whole entry): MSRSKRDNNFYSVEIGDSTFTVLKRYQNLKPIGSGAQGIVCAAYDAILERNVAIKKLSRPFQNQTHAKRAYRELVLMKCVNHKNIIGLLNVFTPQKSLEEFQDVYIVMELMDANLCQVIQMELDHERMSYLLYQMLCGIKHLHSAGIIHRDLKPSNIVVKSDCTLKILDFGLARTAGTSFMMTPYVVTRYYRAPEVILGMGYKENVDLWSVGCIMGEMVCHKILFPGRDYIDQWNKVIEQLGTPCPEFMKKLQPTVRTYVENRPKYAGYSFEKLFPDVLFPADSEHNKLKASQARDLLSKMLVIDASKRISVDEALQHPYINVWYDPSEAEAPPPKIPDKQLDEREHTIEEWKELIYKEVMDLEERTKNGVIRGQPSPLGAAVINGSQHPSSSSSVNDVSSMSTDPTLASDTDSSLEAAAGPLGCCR

Regarding `COc1ccc2[nH]cc(/C=C3\C(=O)Nc4ccc(S(N)(=O)=O)cc43)c2c1`, the Activity in experiment [1] stood at 88%; in experiment [2], 100%; in experiment [3], 72%; in experiment [4], 0%; in experiment [5] it was 82%; in experiment [6], 101%. The Activity in experiment [7] turned out to be 85%; in [8] it was 83%; in experiment [9] it was 6%; in [10], 72%; in experiment [11] it was 114%; in experiment [12], 95%. The Activity in experiment [13] amounted to 84%; in experiment [14] it was 103%.
Take `CNS(=O)(=O)c1ccc2c(c1)/C(=C/c1cn(C)c3ccc(OC)cc13)C(=O)N2`: the Activity was found to be 96% in experiment [1]; 97% in [2]; 45% in experiment [3]; 3% in [4]; 91% in experiment [5]; 99% in [6]. The Activity in experiment [7] turned out to be 94%; in [8], 90%; in [9], 4%; in experiment [10] it was 93%; in [11], 105%; in [12], 87%. The values for the Activity in [13] and in experiment [14] were 100% and 103%, respectively.
Turning to `COc1ccc2c(c1)c(/C=C1\C(=O)Nc3ccc(S(N)(=O)=O)cc31)cn2C`, the Activity stood at 92% in experiment [1]; 117% in experiment [2]; 65% in experiment [3]; 1% in experiment [4]; 68% in experiment [5]; 109% in experiment [6]. For the same compound, the Activity in experiment [7] was found to be 80%; in experiment [8], 90%; in [9], 3%; in [10], 91%; in experiment [11] it was 106%; in [12], 93%. Further, the Activity came out at 94% in experiment [13] and 110% in experiment [14].
Turning to `Cn1cc(/C=C2\C(=O)Nc3ccc(S(N)(=O)=O)cc32)c2ccccc21`, the Activity in experiment [1] amounted to 90%; in experiment [2], 111%; in experiment [3], 64%; in experiment [4], 2%; in experiment [5] it was 78%; in [6] it was 104%. Moreover, the Activity in [7] is 81%; in experiment [8] it was 90%; in experiment [9], 3%; in experiment [10], 91%; in experiment [11], 116%; in experiment [12], 91%. The Activity in [13] was determined as 96%; in experiment [14] it was 121%.
For `CN(C)S(=O)(=O)c1ccc2c(c1)/C(=C/c1cn(C)c3ccc(O)cc13)C(=O)N2`, the Activity in experiment [1] was found to be 87%; in experiment [2], 95%; in [3], 62%; in experiment [4] it was 2%; in experiment [5], 90%; in experiment [6] it was 104%. The Activity in experiment [7] came out at 87%; in experiment [8] it was 84%; in [9], 10%; in experiment [10], 89%; in experiment [11] it was 109%; in experiment [12], 91%. The Activity in experiment [13] was 89%; in experiment [14], 105%.
As for `COc1ccc2c(c1)c(/C=C1\C(=O)Nc3ccc(S(=O)(=O)N(C)C)cc31)cn2C`, the Activity in experiment [1] worked out at 87%; in [2] it was 89%; in experiment [3] it was 81%; in experiment [4], 6%; in experiment [5] it was 99%; in [6], 102%. Moreover, the Activity in [7] is 90%; in [8] it was 91%; in experiment [9], 18%; in experiment [10], 92%; in [11] it was 111%; in [12] it was 93%. Besides, the Activity worked out at 90% in [13] and 103% in experiment [14].
